Results as given in patent publication US20050020854A1, “Alkyl(en)ylglycerinether carboxylic acids” (priority 2001, published 2005).
Where two headings read alike, the source gives them in different places.

Tested on: mucous membrane (HET-CAM)
Assay: Mucous membrane compatibility, in vitro HET-CAM test, reaction time method
Experimental: Mucous membrane compatibility was evaluated by the in vitro HET-CAM test using the reaction time method (conc. 5% in 2×-distilled water, pH=6).

[1] = conc. 5% in 2×-distilled water, pH=6

Evaluation	Substance	Irritation value Q	Evaluation [1]	Irritation value Q [1]
Moderately	Sodium Laureth Sulfate [Texapon ASV]	1.0		
	mono-C12-glycerol ether carboxylic acid [Example 1]		Slightly irritating	0.76
	mono-C12-glycerol ether+4EO ether carboxylic acid [Example 2]	0.00		
